pIC50: −log10 of the molar value.
Target: T1, IGF-1R (Homo sapiens, UniProt P08069)
T1 construct: expressed in transfected cells; host or cells: Hek293 (Hek293-IGF1R)
Experiment: Cellular IGF-1R assay: capture ELISA (MSD) of receptor phosphorylation in Hek293 cells
Format: cell-based
Details: Hek293-IGF1R cells, 1 h pre-incubation, 10 min IGF stimulation, pIGF1R capture ELISA
Summary of the method: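 IC50 from 4-parameter fit of IGF1R phosphorylation, normalised to IGF-stimulated and unstimulated controls, measured by MSD capture ELISA on lysates. Hek293-IGF1R cells in starvation medium got compound 1 h (top 10 μM, 3-fold steps, 0.1% DMSO) before a 10 min pulse of 1.0 ng/μL IGF.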

T1 sequence (P08069 31-1367): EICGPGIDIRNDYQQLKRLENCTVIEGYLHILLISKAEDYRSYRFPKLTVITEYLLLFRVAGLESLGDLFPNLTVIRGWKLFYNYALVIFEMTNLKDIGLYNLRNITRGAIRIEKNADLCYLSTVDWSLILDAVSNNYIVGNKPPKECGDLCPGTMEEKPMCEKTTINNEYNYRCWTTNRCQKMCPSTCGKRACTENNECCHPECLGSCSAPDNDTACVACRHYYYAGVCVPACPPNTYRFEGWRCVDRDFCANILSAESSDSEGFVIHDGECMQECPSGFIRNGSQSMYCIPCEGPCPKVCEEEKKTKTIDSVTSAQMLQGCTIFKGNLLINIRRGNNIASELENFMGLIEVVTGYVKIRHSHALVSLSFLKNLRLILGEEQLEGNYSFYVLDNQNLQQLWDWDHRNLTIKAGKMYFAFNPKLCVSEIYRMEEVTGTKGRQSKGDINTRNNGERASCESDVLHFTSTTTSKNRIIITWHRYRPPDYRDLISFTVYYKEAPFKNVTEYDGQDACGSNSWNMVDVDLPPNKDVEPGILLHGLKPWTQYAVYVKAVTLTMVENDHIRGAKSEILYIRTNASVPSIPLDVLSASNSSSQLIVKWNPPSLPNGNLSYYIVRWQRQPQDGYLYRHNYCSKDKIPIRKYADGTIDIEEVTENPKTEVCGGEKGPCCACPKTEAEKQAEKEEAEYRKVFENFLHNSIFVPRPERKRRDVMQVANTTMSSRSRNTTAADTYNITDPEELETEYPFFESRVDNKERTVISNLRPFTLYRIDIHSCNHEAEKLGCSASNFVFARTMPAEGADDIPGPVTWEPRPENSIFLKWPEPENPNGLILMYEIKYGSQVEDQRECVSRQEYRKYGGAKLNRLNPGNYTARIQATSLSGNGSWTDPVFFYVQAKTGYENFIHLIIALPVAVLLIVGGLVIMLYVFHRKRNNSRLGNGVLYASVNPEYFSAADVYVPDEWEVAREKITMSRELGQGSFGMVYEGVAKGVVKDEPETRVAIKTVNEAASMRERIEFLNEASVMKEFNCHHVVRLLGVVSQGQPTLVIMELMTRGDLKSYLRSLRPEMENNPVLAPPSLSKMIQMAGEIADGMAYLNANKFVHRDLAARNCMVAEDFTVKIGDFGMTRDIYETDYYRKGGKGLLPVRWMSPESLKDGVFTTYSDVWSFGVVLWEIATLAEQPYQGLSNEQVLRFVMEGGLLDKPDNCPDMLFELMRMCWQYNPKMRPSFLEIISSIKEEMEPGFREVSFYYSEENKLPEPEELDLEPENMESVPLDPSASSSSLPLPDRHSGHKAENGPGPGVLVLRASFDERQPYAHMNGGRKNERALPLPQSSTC

Row | Structure (SMILES) | pIC50
1 | CN1CCC(N2CCC(n3cc(-c4cccc(OCC5CCC(C)(C)O5)c4)c4c(N)ncnc43)CC2)CC1 (stereo not shown) [Example 60, 5-[3-(5,5-dimethyl-tetrahydro-furan-2-ylmethoxy)-phenyl]-7-(1′-methyl-[1,4′]bipiperidinyl-4-yl)-7H-pyrrolo[2,3-d]pyrimidin-4-ylamine] | 6.47
2 | CC1(C)CCC(COc2cccc(-c3cn([C@H]4C[C@@H](CN5CCNC(=O)C5)C4)c4ncnc(N)c34)c2)O1 (stereo partly drawn) [Example 61, 4-(cis-3-{4-amino-5-[3-(5,6-dimethyl-tetrahydro-furan-2-ylmethoxy)-phenyl]-pyrrolo[2,3-d]pyrimidin-7-yl}-cyclobutylmethyl)-piperazin-2-one] | 6.67
3 | NC(=O)[C@@H]1CCCN1C[C@H]1C[C@@H](n2cc(-c3cccc(OCC45CCC(CC4)O5)c3)c3c(N)ncnc32)C1 [Example 68, (S)-1-(cis-3-(4-amino-5-[3-(7-oxa-bicyclo[2.2.1]hept-1-ylmethoxy)-phenyl]-pyrrolo[2,3-d]pyrimidin-7-yl)-cyclobutylmethyl)-pyrrolidine-2-carboxylic acid amide] | 7.92
4 | CC1(C)CCC(COc2cccc(-c3cn(C4CCC(N5CCC[C@H]5C(N)=O)CC4)c4ncnc(N)c34)c2)O1 (stereo partly drawn) [Example 69, (S)-1-(4-{4-amino-5-[3-(5,5-dimethyl-tetrahydro-furan-2-ylmethoxy)-phenyl]-pyrrolo[2,3-d]pyrimidin-7-yl}-cyclohexyl)-pyrrolidine-2-carboxylic acid amide] | 6.41
5 | CC1(C)CCC(COc2cccc(-c3cn([C@H]4C[C@H](CN5CCC[C@H]5C(N)=O)C4)c4ncnc(N)c34)c2)O1 (stereo partly drawn) [Example 71, (S)-1-(trans-3-{4-amino-5-[3-(5,5-dimethyl-tetrahydro-furan-2-ylmethoxy)-phenyl]-pyrrolo[2,3-d]pyrimidin-7-yl}-cyclobutylmethyl)-pyrrolidine-2-carboxylic acid amide] | > 8.40
6 | CC1(C)CCC(COc2cccc(-c3cn([C@H]4C[C@H](CN5CCC[C@@H]5C(N)=O)C4)c4ncnc(N)c34)c2)O1 (stereo partly drawn) [Example 72, (R)-1-(trans-3-{4-amino-5-[3-(5,5-dimethyl-tetrahydro-furan-2-ylmethoxy)-phenyl]pyrrolo[2,3-d]pyrimidin-7-yl}-cyclobutylmethyl)-pyrrolidine-2-carboxylic acid amide] | 7.24
7 | NC(=O)[C@H]1CCCN1C[C@H]1C[C@@H](n2cc(-c3cccc(OCC45CCC(CC4)O5)c3)c3c(N)ncnc32)C1 [Example 75, (R)-1-(cis-3-{4-amino-5-[3-(7-oxa-bicyclo[2.2.1]hept-1-ylmethoxy)-phenyl]-pyrrolo[2,3-d]pyrimidin-7-yl}-cyclobutylmethyl)-pyrrolidine-2-carboxylic acid amide] | 8.10
8 | NC(=O)[C@@H]1CCCN1C[C@H]1C[C@@H](n2cc(-c3cccc(OCC4CCCO4)c3)c3c(N)ncnc32)C1 (stereo partly drawn) [Example 76, (S)-1-(cis-3-{4-amino-5-[3-(tetrahydro-furan-2-ylmethoxy)-phenyl]-pyrrolo[2,3-d]pyrimidin-7-yl}-cyclobutylmethyl)-pyrrolidine-2-carboxylic acid amide] | 7.41
9 | NC(=O)[C@@H]1CCCN1C[C@H]1C[C@H](n2cc(-c3cccc(OCC45CCC(CC4)O5)c3)c3c(N)ncnc32)C1 [Example 78, (S)-1-(trans-3-{4-amino-5-[3-(7-oxa-bicyclo[2.2.1]hept-1-ylmethoxy)-phenyl]-pyrrolo[2,3-d]pyrimidin-7-yl}cyclobutylmethyl)-pyrrolidine-2-carboxylic acid amide] | 8.30
10 | NC(=O)[C@H]1CCCN1C[C@H]1C[C@H](n2cc(-c3cccc(OCC45CCC(CC4)O5)c3)c3c(N)ncnc32)C1 [Example 79, (R)-1-(trans-3-{4-amino-5-[3-(7-oxa-bicyclo[2.2.1]hept-1-ylmethoxy)-phenyl]-pyrrolo[2,3-d]pyrimidin-7-yl}cyclobutylmethyl)-pyrrolidine-2-carboxylic acid amide] | 8.15
11 | CC1(C)CCC(COc2cccc(-c3cn([C@H]4C[C@H](CN5CC[C@@H](O)[C@H]5C(N)=O)C4)c4ncnc(N)c34)c2)O1 (stereo partly drawn) [Example 80, (2S,3R)-1-(trans-3-(4-amino-5-[3-(5,5-dimethyl-tetrahydro-furan-2-ylmethoxy)-phenyl]-pyrrolo[2,3-d]pyrimidin-7-yl}-cyclobutylmethyl)-3-hydroxy-pyrrolidine-2-carboxylic acid amide] | 7.89
12 | NC(=O)[C@H]1CCCN1C[C@H]1C[C@@H](n2cc(-c3cccc(OCC4CCCO4)c3)c3c(N)ncnc32)C1 (stereo partly drawn) [Example 81, (R)-1-(cis-3-{4-amino-5-[3-(tetrahydro-furan-2-ylmethoxy)-phenyl]-pyrrolo[2,3-d]pyrimidin-7-yl}-cyclobutylmethyl)-pyrrolidine-2-carboxylic acid amide] | 6.80
13 | NC(=O)[C@@H]1[C@H](O)CCN1C[C@H]1C[C@@H](n2cc(-c3cccc(OCC4CCCO4)c3)c3c(N)ncnc32)C1 (stereo partly drawn) [Example 82, (2S,3R)-1-(cis-3-{4-amino-5-[3-(tetrahydro-furan-2-ylmethoxy)-phenyl]-pyrrolo[2,3-d]pyrimidin-7-yl}-cyclobutylmethyl)-3-hydroxy-pyrrolidine-2-carboxylic acid amide] | 6.69
14 | NC(=O)[C@@H]1CCCN1C[C@H]1C[C@H](n2cc(-c3cccc(OCC4CCCO4)c3)c3c(N)ncnc32)C1 (stereo partly drawn) [Example 86, (S)-1-(trans-3-(4-amino-5-[3-(tetrahydro-furan-2-ylmethoxy)-phenyl]-pyrrolo[2,3-d]pyrimidin-7-yl}-cyclobutylmethyl)-pyrrolidine-2-carboxylic acid amide] | 7.33
15 | NC(=O)[C@H]1CCCN1C[C@H]1C[C@H](n2cc(-c3cccc(OCC4CCCO4)c3)c3c(N)ncnc32)C1 (stereo partly drawn) [Example 87, (R)-1-(trans-3-(4-amino-5-[3-(tetrahydro-furan-2-ylmethoxy)-phenyl]-pyrrolo[2,3-d]pyrimidin-7-yl}-cyclobutylmethyl)-pyrrolidine-2-carboxylic acid amide] | 6.94

The next lines start with the values.

Row | pIC50 | Structure (SMILES)
16 | 6.27 | Nc1ncnc2c1c(-c1cccc(OCC3CCCCO3)c1)cn2[C@H]1C[C@@H](CN2CCC[C@@H]2C(=O)O)C1 (stereo partly drawn) [Example 90, 1-(cis-3-{4-amino-5-[3-(tetrahydro-pyran-2-ylmethoxy)-pheny]-pyrrolo[2,3-d]pyrimidin-7-yl}-cyclobutylmethyl)-pyrrolidine-2-carboxylic acid]
17 | 7.59 | CC1(C(N)=O)CCCN1CC1CC(n2cc(-c3cccc(OCC4CCCCO4)c3)c3c(N)ncnc32)C1 [Example 93, (2S)-1-(((1s,3R)-3-(4-amino-5-(3-((tetrahydro-2H-pyran-2-yl)methoxy)phenyl)-7H-pyrrolo[2,3-d]pyrimidin-7-yl)cyclobutyl)methyl)-2-methylpyrrolidine-2-carboxamide]
18 | 7.07 | NC(=O)C1CC(F)CN1CC1CC(n2cc(-c3cccc(OCC4CCCCO4)c3)c3c(N)ncnc32)C1 [Example 94, (2S,4R)-1-(((1 S,3R)-3-(4-amino-5-(3-((tetrahydro-2H-pyran-2-yl)methoxy)phenyl)-7H-pyrrolo[2,3-d]pyrimidin-7-yl)cyclobutyl)methyl)-4-fluoropyrrolidine-2-carboxamide]
19 | 6.66 | NC(=O)C1C2CCC(C2)N1CC1CC(n2cc(-c3cccc(OCC4CCCCO4)c3)c3c(N)ncnc32)C1 [Example 95, (1R,3R,45)-2-(((1s, 3S)-3-(4-amino-5-(3-((tetrahydro-2H-pyran-2-yl)methoxy)phenyl)-7H-pyrrolo[2,3-d]pyrimidin-7-yl)cyclobutyl)methyl)-2-azabicyclo[2.2.1]heptane-3-carboxamide]
20 | 7.23 | NC(=O)[C@@H]1COCCN1C[C@H]1C[C@@H](n2cc(-c3cccc(OCC4CCCCO4)c3)c3c(N)ncnc32)C1 (stereo partly drawn) [Example 96, (3S)-cis-4-((3-(4-amino-5-(3-((tetrahydro-2H-pyran-2-yl)methoxy)phenyl)-7H-pyrrolo[2,3-d]pyrimidin-7-yl}-cyclobutyl)methyl)morpholine-3-carboxamide]
21 | 6.98 | NC(=O)C1CC(F)CN1CC1CC(n2cc(-c3cccc(OCC4CCCCO4)c3)c3c(N)ncnc32)C1 [Example 97, (2S,4S)-1-(((1S,3R)-3-(4-amino-5-(3-((tetrahydro-2H-pyran-2-yl)methoxy)phenyl)-7H-pyrrolo[2,3-d]pyrimidin-7-yl)cyclobutyl)methyl)-4-fluoropyrrolidine-2-carboxamide]
22 | 7.55 | CC1(C)CN(CC2CC(n3cc(-c4cccc(OCC5CCCCO5)c4)c4c(N)ncnc43)C2)[C@H](C(N)=O)CO1 (stereo partly drawn) [Example 98, (3S)-4-((3-(4-amino-5-(3-((tetrahydro-2H-pyran-2-yl)methoxy)phenyl)-7H-pyrrolo[2,3-d]pyrimidin-7-yl)cyclobutyl)methyl)-6,6-dimethylmorpholine-3-carboxamide]
23 | 6.35 | CNC(=O)[C@H]1CCCN1C[C@H]1C[C@@H](n2cc(-c3cccc(OCC4CCCCO4)c3)c3c(N)ncnc32)C1 (stereo partly drawn) [Example 100, (2R)-1-(((1R,3R)-3-(4-amino-5-(3-((tetrahydro-2H-pyran-2-yl)methoxy)phenyl)-7H-pyrrolo[2,3-d]pyrimidin-7-yl)cyclobutyl)methyl)-N-methylpyrrolidine-2-carboxamide]
24 | 8.10 | CC1(C(N)=O)CCCN1CC1CC(n2cc(-c3cccc(OCC45CCC(CC4)O5)c3)c3c(N)ncnc32)C1 [Example 101, (S)-1-(((1S,3R)-3-(5-(3-(7-oxabicyclo[2.2.1]heptan-1-ylmethoxy)phenyl)-4-amino-7H-pyrrolo[2,3-d]pyrimidin-7-yl)cyclobutyl)methyl)-2-methylpyrrolidine-2-carboxamide]
25 | 7.37 | NC(=O)[C@@H]1[C@@H]2C[C@@H]2CN1CC1CC(n2cc(-c3cccc(OCC4CCCCO4)c3)c3c(N)ncnc32)C1 (stereo partly drawn) [Example 102, (1R,2S,5S)-3-(((1S,3R)-3-(4-amino-5-(3-((tetrahydro-2H-pyran-2-yl)methoxy)phenyl)-7H-pyrrolo[2,3-d]pyrimidin-7-yl)cyclobutyl)methyl)-3-azabicyclo[3.1.0]hexane-2-carboxamide]

Source: patent US20120165310A1, “ETHER DERIVATIVES OF BICYCLIC HETEROARYLS” (NOVARTIS AG, priority 2009, published 2012)
